# Data as given in patent publication US20230117034A1, “PYRAZOLOTRIAZINES” (Bayer Aktiengesellschaft, priority 2019, published 2023).
# How the values were obtained:
# [1] = molecular target: T1, CYCLIN K (nuclear staining in CAL-120 cells) (Homo sapiens, UniProt O75909); test: CYCLIN K nuclear protein level: immunofluorescence high content analysis (CAL-120); assay type: cell-based; conditions: 24 h, 50% reduction of nuclear CCNK staining intensity, median, read-out: CYCLIN K degradation IF, DC50-[mol/l] (median)
# T1 construct: endogenous in cells; host or cells: CAL-120 human breast cancer cells (DSMZ ACC 459)
# T1 sequence (O75909 whole entry): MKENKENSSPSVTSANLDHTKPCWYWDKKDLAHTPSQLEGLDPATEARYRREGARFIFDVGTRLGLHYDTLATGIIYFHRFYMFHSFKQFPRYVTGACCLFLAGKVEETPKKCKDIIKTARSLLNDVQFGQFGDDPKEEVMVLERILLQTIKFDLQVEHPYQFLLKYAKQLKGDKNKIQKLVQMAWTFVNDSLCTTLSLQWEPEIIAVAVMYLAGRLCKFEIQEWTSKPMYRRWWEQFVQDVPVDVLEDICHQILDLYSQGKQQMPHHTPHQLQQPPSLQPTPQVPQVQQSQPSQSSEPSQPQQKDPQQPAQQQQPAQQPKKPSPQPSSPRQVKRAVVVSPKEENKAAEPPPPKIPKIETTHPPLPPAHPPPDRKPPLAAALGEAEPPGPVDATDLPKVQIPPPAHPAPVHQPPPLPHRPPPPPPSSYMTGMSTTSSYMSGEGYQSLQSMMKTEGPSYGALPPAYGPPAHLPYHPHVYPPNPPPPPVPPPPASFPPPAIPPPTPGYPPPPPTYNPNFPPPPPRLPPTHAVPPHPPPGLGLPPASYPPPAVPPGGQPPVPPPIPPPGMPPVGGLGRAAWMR
# T1 sequence (Q9NYV4 whole entry partner): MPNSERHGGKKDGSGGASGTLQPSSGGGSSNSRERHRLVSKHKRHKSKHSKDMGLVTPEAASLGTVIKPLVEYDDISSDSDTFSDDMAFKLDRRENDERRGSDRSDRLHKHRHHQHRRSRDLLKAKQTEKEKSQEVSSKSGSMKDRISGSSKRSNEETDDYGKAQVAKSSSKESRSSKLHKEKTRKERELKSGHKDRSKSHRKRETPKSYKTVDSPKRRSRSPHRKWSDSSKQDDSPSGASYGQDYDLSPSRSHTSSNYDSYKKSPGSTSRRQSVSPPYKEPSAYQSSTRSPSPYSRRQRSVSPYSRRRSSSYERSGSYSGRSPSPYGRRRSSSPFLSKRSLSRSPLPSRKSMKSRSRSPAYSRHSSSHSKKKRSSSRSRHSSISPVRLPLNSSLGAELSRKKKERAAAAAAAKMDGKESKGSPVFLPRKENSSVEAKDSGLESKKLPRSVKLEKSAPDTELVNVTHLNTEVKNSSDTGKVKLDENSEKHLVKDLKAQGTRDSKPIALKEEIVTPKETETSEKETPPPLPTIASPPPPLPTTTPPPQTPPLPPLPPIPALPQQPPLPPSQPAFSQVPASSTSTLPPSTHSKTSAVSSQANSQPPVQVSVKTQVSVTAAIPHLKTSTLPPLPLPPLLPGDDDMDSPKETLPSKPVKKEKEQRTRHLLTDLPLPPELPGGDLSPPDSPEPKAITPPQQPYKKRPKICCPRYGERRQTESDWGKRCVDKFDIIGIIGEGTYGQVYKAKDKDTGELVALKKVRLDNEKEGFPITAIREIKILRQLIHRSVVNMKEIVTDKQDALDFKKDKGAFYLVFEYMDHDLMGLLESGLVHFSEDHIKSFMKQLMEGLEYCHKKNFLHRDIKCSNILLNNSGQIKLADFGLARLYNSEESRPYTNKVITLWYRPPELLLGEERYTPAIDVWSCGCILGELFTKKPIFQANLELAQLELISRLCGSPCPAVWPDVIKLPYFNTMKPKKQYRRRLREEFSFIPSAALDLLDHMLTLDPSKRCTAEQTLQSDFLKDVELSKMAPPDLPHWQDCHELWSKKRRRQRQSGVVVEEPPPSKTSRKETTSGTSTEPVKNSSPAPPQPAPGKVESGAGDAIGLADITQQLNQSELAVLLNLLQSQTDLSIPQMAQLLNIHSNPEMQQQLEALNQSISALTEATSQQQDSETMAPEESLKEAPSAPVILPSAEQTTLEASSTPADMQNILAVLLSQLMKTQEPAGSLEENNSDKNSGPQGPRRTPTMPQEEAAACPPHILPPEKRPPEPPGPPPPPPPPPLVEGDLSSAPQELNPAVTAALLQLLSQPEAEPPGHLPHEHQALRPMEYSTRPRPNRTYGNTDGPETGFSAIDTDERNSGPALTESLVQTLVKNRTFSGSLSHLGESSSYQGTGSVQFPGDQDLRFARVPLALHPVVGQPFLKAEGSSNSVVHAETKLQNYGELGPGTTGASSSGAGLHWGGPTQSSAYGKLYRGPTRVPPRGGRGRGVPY
# Protocol: 8. CYCLIN K nuclear protein level: immunofluorescence High Content Analysis
# CAL-120 human breast cancer cells (DSMZ ACC 459) are seeded in 1536-well microtiter plates (800 cells per well) containing 50 nanoL of compounds in Dose-Response. Control wells received DMSO or Example 4. Plates are then incubated for 24 h at 37° C. in an humidified incubator and fixed with 4% PFA for 10 min. Then immunofluorescence (IF) against CYCLIN K (ThermoFisher Scientific CONK Antibody #PA5-85020, rabbit, 1:200 dilution) is performed using standard IF protocols. Cells are then stained with Hoechst 33342 (Life Technologies, H-1399, 0.1 microg/ml) and imaged on an automated confocal microscopy system (e.g. Perkin Elmer Opera Phenix). Nuclear and cytoplasmic intensity as well as the nuclear/cytoplasmic intensity ratio is determined by automated image analysis using custom generated scripts (MetaXpress). Data is then transferred to Genedata Screener software, normalized to DMSO and control and DC50 values (degrading concentration to achieve 50% reduction of nuclear CCNK staining intensity relative to controls) are reported.
# [2] = test system: BRCA1 mRNA expression in MDA-MB-231 cells; test: qRT-PCR assay: BRCA1 mRNA expression in MDA-MB-231; assay type: cell-based, human; conditions: Homo sapiens, MDA-MB-231, Inhibition of BRCA1 mRNA expression in MDA-MB-231 cells; median; read-out: RTqPCR-MDA-MB-231, IC50, BRCA1 (median)
# Protocol: 3. qRT-PCR Assay: BRCA, ATR, MCL1 in MDA-MB-231, CAL-120
# Tissue cultured human MDA-MB-231 human breast cancer cells were plated in 500 microL per well at 200,000 cells/well in a 24 well microtiter plate. After 24 h, the cells were exposed continuously for 24 h to test substances (substances were added with Tecan HP 0300 Dispenser). RNA was prepared using Qiagen RNeasy MiniKit (#74106), RNA was quantified using a NanoDrop Equipment, and 600 nano gamms of RNA was coverted to cDNA using a SuperScript VILO kit (Thermofisher #11755050) followed by qPCR amplification. BRCA1 and ATR gene expression was measured by RT-qPCR and normalised to GAPDH housekeeping gene expression. qPCR primer sets have been purchased from Thermo Fisher Scientific/Applied Biosystems: BRCA1, #Hs 01556193; ATR, #Hs 00992123; GAPDH, #Hs 03929097.
# [3] = test system: MDA-MB-231, human breast cancer cells; test: Proliferation assay MDA-MB-231 (crystal violet, 4 days); assay type: cell-based; conditions: Homo sapiens, MDA-MB-231, 96 h, MDA-MB-231 cells, median, read-out: Prolif-MDA MB-231, IC50-[mol/l] (median)
# Protocol: Human tumour cells were originally obtained from the American Type Culture Collection (ATCC), or from the Deutsche Sammlung von Mikroorganismen und Zellkulturen (DSMZ, German Collection of Microorganisms and Cell Cultures). Cultivated tumour cells (CAL-120, human breast adenocarcinoma cells, DSMZ ACC-459; MDA-MB-231, human breast cancer cells, ATCC HTB-26) were plated at a density of 4,000 cells/well in a 96-well multititer plate in 200 microL of their respective growth medium supplemented 10% fetal calf serum. After 24 hours, the cells of one plate (zero-point plate) were stained with crystal violet (see below), while the medium of the other plates was supplemented with the test substances in various concentrations (0 micromol/L, as well as in the range of 0.01-10 micromol/L; the final concentration of the solvent dimethyl sulfoxide was adjusted to 0.1%) using a Tecan HP D300 Digital Dispenser. The cells were incubated for 4 days in the presence of test substances. Cell proliferation was determined by staining the cells with crystal violet: the cells were fixed by adding 20 microL/measuring point of an 11% glutaric aldehyde solution for 15 minutes at room temperature. After three washing cycles of the fixed cells with water, the plates were dried at room temperature. The cells were stained by adding 100 microL/measuring point of a 0.1% crystal violet solution (pH 3.0). After three washing cycles of the stained cells with water, the plates were dried at room temperature. The dye was dissolved by adding 100 microL/measuring point of a 10% acetic acid solution. The extinction was determined by photometry at a wavelength of 595 nm. The change of cell number, in percent, was calculated by normalization of the measured values to the extinction values of the zero-point plate (=0%) and the extinction of the untreated (0 μM) cells (=100%). The IC50 values (inhibitory concentration at 50% of maximal effect) were determined by means of a 4 parameter fit.
Structure (SMILES),DC50 [1],IC50 [2],IC50 [3]
"CC(C)c1cnn2c(NCc3nc4ccccc4[nH]3)nc(N(C)CC(C)(C)O)nc12 [Example 5, 1-{[4-{[(1H-benzimidazol-2-yl)methyl]amino}-8-(propan-2-yl)pyrazolo[1,5-a][1,3,5]triazin-2-yl](methyl)amino}-2-methylpropan-2-ol]",0.00195 µM,0.0233 µM,–
"Brc1cnn2c(NCc3nnc(-c4ccccc4)[nH]3)nc(N3C[C@H]4C[C@@H]3CO4)nc12 [Example 118, 8-bromo-2-[(1R,4R)-2-oxa-5-azabicyclo[2.2.1]heptan-5-yl]-N-[(5-phenyl-4H-1,2,4-triazol-3-yl)methyl]pyrazolo[1,5-a][1,3,5]triazin-4-amine]",0.00298 µM,0.0261 µM,–
"CC(C)c1cnn2c(NCc3nc4ccccc4[nH]3)nc(N3CC4(COC4)C3)nc12 [Example 9, N-[(1H-benzimidazol-2-yl)methyl]-2-(2-oxa-6-azaspiro[3.3]heptan-6-yl)-8-(propan-2-yl)pyrazolo[1,5-a][1,3,5]triazin-4-amine]",–,0.255 µM,1.18 µM
"COc1ccc2[nH]c(CNc3nc(N4C[C@@H](C)O[C@@H](C)C4)nc4c(Br)cnn34)nc2c1 [Example 124, 8-bromo-2-[(2R, 6S)-2,6-dimethylmorpholin-4-yl]-N-[(5-methoxy-1H-benzimidazol-2-yl)methyl]pyrazolo[1,5-a][1,3,5]triazin-4-amine]",0.000142 µM,0.00466 µM,–
"C[C@@H]1CN(c2nc(NCc3nc4cc(F)ccc4[nH]3)n3ncc(Br)c3n2)C[C@H](C)O1 [Example 110, 8-bromo-2-[(2R,6S)-2,6-dimethylmorpholin-4-yl]-N-[(5-fluoro-1H-benzimidazol-2-yl)methyl]pyrazolo[1,5-a][1,3,5]triazin-4-amine]",0.000354 µM,0.00751 µM,–
"Brc1cnn2c(NCc3nc4ccccc4[nH]3)nc(N3C[C@H]4C[C@@H]3CO4)nc12 [Example 102, N-[(1H-benzimidazol-2-yl)methyl]-8-bromo-2-[(1R,4R)-2-oxa-5-azabicyclo[2.2.1]heptan-5-yl]pyrazolo[1,5-a][1,3,5]triazin-4-amine]",0.000517 µM,0.0296 µM,–
"Fc1cc(-c2nnc(CNc3nc(N4CCOCC4)nc4c(Br)cnn34)[nH]2)cc(F)c1F [Example 100, 8-bromo-2-(morpholin-4-yl)-N-{[5-(3,4,5-trifluorophenyl)-4H-1,2,4-triazol-3-yl]methyl}pyrazolo[1,5-a][1,3,5]triazin-4-amine]",0.0074 µM,0.0622 µM,–
"[O-][S+]1CCN(c2nc(NCc3nc4ccccc4[nH]3)n3ncc(Br)c3n2)CC1 [Example 144, 4-(4-{[(1H-benzimidazol-2-yl)methyl]amino}-8-bromopyrazolo[1,5-a][1,3,5]triazin-2-yl)-1lambda^4-thiomorpholin-1-one]",–,0.0833 µM,0.185 µM
"O=S1(=O)CCN(c2nc(NCc3nc4ccccc4[nH]3)n3ncc(Br)c3n2)CC1 [Example 166, 4-(4-{[(1H-benzimidazol-2-yl)methyl]amino}-8-bromopyrazolo[1,5-a][1,3,5]triazin-2-yl)-1 lambda^6-thiomorpholine-1,1-dione]",–,0.0462 µM,0.164 µM
"OCC1CCN1c1nc(NCc2nc3ccccc3[nH]2)n2ncc(Br)c2n1 (stereo not drawn) [Example 147, [1-[4-(1H-benzimidazol-2-ylmethylamino)-8-bromo-pyrazolo[1,5-a][1,3,5]triazin-2-yl]azetidin-2-yl]methanol]",–,0.0767 µM,0.317 µM
"Brc1cnn2c(NCc3nc4ccccc4[nH]3)nc(N3CCN4CCC[C@@H]4C3)nc12 [Example 149, N-[(1H-benzimidazol-2-yl)methyl]-8-bromo-2-[(8aR)-hexahydropyrrolo[1,2-a]pyrazin-2 (1 H)-yl]pyrazolo[1,5-a][1,3,5]triazin-4-amine]",–,0.148 µM,0.276 µM
"N=S1(=O)CCN(c2nc(NCc3nc4ccccc4[nH]3)n3ncc(Br)c3n2)CC1 [Example 145, 4-(4-{[(1H-benzimidazol-2-yl)methyl]amino}-8-bromopyrazolo[1,5-a][1,3,5]triazin-2-yl)-1-imino-1lambda^6-thiomorpholin-1-one]",–,0.19 µM,1.62 µM
